Results on five molecules are retold here after article PMC7572458, “Multiple mutations in the EPSPS and ALS genes of Amaranthus hybridus underlie resistance to glyphosate and ALS inhibitors” (Scientific Reports, 2020).

The target in assay [1] is T1, ALS (acetolactate synthase) (Amaranthus hybridus, UniProt A0A346FHL9).
T1 construct: native, crude seedling leaf extract supernatant (15,000 g), not purified
Put plainly: acetoin colorimetric (creatine/naphthol, […] nm), crude leaf extract. The following applies: read-out: I50 (μM) ± SE. It is filed as biochemical.

Assay [2] has as its system T2, ALS (acetolactate synthase).
T2 construct: native, crude seedling leaf extract supernatant (15,000 g), not purified
Described as above. The following applies: MR2 population, zygosity not given; pyruvate, MgCl2, FAD, pH 7.5, 37 °C, 1 h; stated gain; read-out: I50 (μM) ± SE. Format: biochemical, Amaranthus hybridus.

T1 sequence (A0A346FHL9 81-669 limits assumed): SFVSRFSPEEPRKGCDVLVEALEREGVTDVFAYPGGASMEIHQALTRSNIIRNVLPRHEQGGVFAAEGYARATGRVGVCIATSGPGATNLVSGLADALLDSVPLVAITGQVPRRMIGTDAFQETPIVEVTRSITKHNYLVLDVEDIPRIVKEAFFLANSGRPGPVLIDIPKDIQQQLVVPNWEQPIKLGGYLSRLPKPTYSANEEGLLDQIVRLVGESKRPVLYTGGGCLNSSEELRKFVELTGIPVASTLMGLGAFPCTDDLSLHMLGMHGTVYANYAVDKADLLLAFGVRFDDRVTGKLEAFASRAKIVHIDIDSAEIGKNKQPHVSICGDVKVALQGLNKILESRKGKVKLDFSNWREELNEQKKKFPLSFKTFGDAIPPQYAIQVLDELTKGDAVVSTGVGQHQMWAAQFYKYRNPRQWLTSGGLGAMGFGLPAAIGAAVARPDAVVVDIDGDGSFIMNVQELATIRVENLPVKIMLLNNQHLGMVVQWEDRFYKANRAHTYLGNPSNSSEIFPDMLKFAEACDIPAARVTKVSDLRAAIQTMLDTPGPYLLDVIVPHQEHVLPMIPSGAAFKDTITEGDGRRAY

In the case of `COCc1cnc(C2=NC(C)(C(C)C)C(=O)N2)c(C(=O)O)c1` (stereo not shown) [imazamox], the IC50 in assay [1] came to 117 ± 9.1 µM; in assay [2], 3170 ± 112 µM.

As to `COC(=O)c1ccccc1S(=O)(=O)NC(=O)N(C)c1nc(C)nc(OC)n1` [tribenuron-methyl], the IC50 was 47.5 ± 6.3 µM in assay [1] and 273 ± 26 µM in assay [2].

With `COc1ncc(F)c2nc(S(=O)(=O)Nc3c(F)cccc3F)nn12` [florasulam], the values for the IC50 in assay [1] and in assay [2] were 17.4 ± 1.4 µM and 56.5 ± 9 µM, respectively.

As for `COc1nn(C(=O)NS(=O)(=O)c2ccccc2OC(F)(F)F)c(=O)n1C` [flucarbazone], the IC50 in assay [1] came out at 1 ± 0.1 µM; in assay [2], 145 ± 11.5 µM.

`COc1cc(OC)nc(Oc2cccc(Oc3nc(OC)cc(OC)n3)c2C(=O)O)n1` [byspiribac]: the figures for the IC50 in assay [1] and in assay [2] were 45.9 ± 8 µM and 2730 ± 80 µM, respectively.
